# Experimental data published in patent publication US4220645A, “Chromone derivatives” (Thea (Therapeutique et Applications) SA, priority 1977, dated 1980).
# Counter-ions that a name gives are not always drawn.
# How the values were obtained:
# [1] = tested on: rhythm disorders induced by aconitine; assay: Anti-arrhythmic activity in the guinea-pig (aconitine-induced arrhythmia); type: in vivo; conditions: for Average time for arrhythmia to appear, PES (polymorphic extrasystoles) / Average time for arrhythmia to appear, VT (ventricular tachycardia) / Average time for arrhythmia to appear, MTV (multifocal ventricular tachycardia) / Average time for arrhythmia to appear, VTB (ventricular tachycardia bursts): 6 guinea pigs; for Average time for arrhythmia to appear, PES (polymorphic extrasystoles): controls 27 ± 2; for Average time for arrhythmia to appear, VT (ventricular tachycardia): controls 30 ± 2; for Average time for arrhythmia to appear, MTV (multifocal ventricular tachycardia): controls 41 ± 2; for Average time for arrhythmia to appear, VTB (ventricular tachycardia bursts): controls 63 ± 4; for Delay of rhythm disorders induced by aconitine: I.V., guinea-pig, compared with amiodarone
# Experimental: Anti-arrhythmic activity in the guinea-pig
# Reference: Experimental evaluation of anti-arrhythmic drugs in the guinea-pig. GUIDICELLI, WITCHITZ, LARNO, BOISSIER, Biomedecine, 1973, 19, 308-313.
# Male and female guinea-pigs were used, weighing from 600 to 800 g and anesthetised with urethane (1.25 g/kg/I.P.), tracheotomised and kept under artificial respiration. The electrocardiogram (D2) was recorded.
# Arrhythmia was produced by perfusion at the rate of 0.5 ml/min of an aqueous solution of aconitine nitrate (0.15 mg/ml) in the jugular vein. Measurements were made of the time before the following rhythm disturbances appeared:
# Polymorphic extrasystoles (PES),
# Ventricular tachycardia (VT),
# Multifocal ventricular tachycardia (MVT),
# Ventricular tachycardia bursts (VTB),
# that is a sequence of ventricular complexes of fixed frequency but with regular increasing and decreasing amplitude.
# The following substances were used:
# Amiodarone hydrochloride for comparison.
# The substances were intravenously injected immediately before perfusion with aconitine had started.
# spontaneous heart rate = assay: Bradycardiac activity on the conscious dog; type: in vivo, dog (mongrel); conditions: 4 mg/kg I.V.; for Average heart beat after substance injected: 9 dogs, before injection 132 ± 9, (S) significant to p = 0,05
# Experimental: Bradycardiac activity on the conscious dog
# The dogs used were male and female mongrels weighing from 15 to 20 kg. Their bypass electrocardiograms (D2) were recorded and their heart rate (FC) was measured with a cardiotachometer.
# The animals were not used to tests and consequently their heart rate was relatively high, 130 beats per minute on average.
# 3 control measurements of the heart rate were made during the hour before intravenous injection of the substance under study, and 3 further measurements were made 5 minutes, 20 minutes and 35 minutes after administration.
# [2] = tested on: tachycardia produced by isoprenaline stimulation of the sympathicoβ receptors of the heart; assay: Sympathico-inhibiting activity in the conscious dog (isoprenaline tachycardia); type: in vivo, dog (mongrel); conditions: for Effect of isoprenaline after substance injected: 4 mg/kg I.V., 6 dogs, before injection 114 ± 9 (controls), (S) significant to P = 0,05
# Experimental: Sympathico-inhibiting activity in the conscious dog
# The dogs used were male and female mongrels weighing from 15 to 20 kg. The animals were not anaesthetised. Their electrocardiograms (D2) and heart rates were measured.
# Short bouts of tachycardia, approx. 1 minute long, were produced by intravenously injecting a solution of isoprenaline in doses of 0.25 Y/kg. The injections were repeated every 15 minutes until the increase in heart rate had been reproduced in a satisfactory manner.
# Next, the substance under study was intravenously injected and 3 additional measurements of the isoprenaline tachycardia were made 5 minutes, 20 minutes and 35 minutes after the product under study had been administered.
# [3] = Acute toxicity in the mouse; type: in vivo; conditions: female Swiss mice
# Experimental: Acute toxicity in the mouse
# The acute toxicity of compound No. 6 administered intravenously (I.V.) and orally (P.O.) was determined in female mice of the Swiss strain weighing from 25 to 27 g.
# Compound No. 6 was administered in aqueous solution in a concentration of 0.4% intravenously and in a concentration of 1% and 4% orally.
structure (smiles),measurement,setting,value
"CCCCc1oc2ccccc2c1C(=O)c1cc(I)c(OCCN(CC)CC)c(I)c1 [Amiodarone (hydrochloride), Amiodarone hydrochloride, reference compound]","Average time for arrhythmia to appear, PES (polymorphic extrasystoles)",[1]; 4 mg/kg I.V.,32 ± 3 s
same,"Average time for arrhythmia to appear, VT (ventricular tachycardia)",[1]; 4 mg/kg I.V.,44 ± 6 s
same,"Average time for arrhythmia to appear, MTV (multifocal ventricular tachycardia)",[1]; 4 mg/kg I.V.,59 ± 5 s
same,"Average time for arrhythmia to appear, VTB (ventricular tachycardia bursts)",[1]; 4 mg/kg I.V.,94 ± 8 s
"CCCCN(CCCC)CCCOc1c(C)cc(C(=O)c2cc(=O)c3ccccc3o2)cc1C [Compound No. 1, 2-[4-(3-N,N-dibutylaminopropoxy) 3,5-dimethylbenzoyl] chromone hydrochloride]","Average time for arrhythmia to appear, PES (polymorphic extrasystoles)",[1]; 2 mg/kg I.V.,63 ± 4 s
same,"Average time for arrhythmia to appear, VT (ventricular tachycardia)",[1]; 2 mg/kg I.V.,79 ± 9 s
same,"Average time for arrhythmia to appear, MTV (multifocal ventricular tachycardia)",[1]; 2 mg/kg I.V.,94 ± 10 s
same,"Average time for arrhythmia to appear, VTB (ventricular tachycardia bursts)",[1]; 2 mg/kg I.V.,139 ± 11 s
same,Delay of rhythm disorders induced by aconitine,[1],"delay rhythm disorders induced by aconitine to a greater extent than the conventional reference compound, amiodarone"
same,Effect on spontaneous heart rate,spontaneous heart rate; conscious dog,significantly lowers the spontaneous heart rate
same,Average heart beat after substance injected,"spontaneous heart rate; 5 min, spread ±10",114 beats/min
same,Average heart beat after substance injected,"spontaneous heart rate; 20 min, spread ±8",109 beats/min
same,Average heart beat after substance injected,"spontaneous heart rate; 35 min, spread ±8",107 beats/min
same,Effect of isoprenaline after substance injected,"[2]; 5 min, spread ±12",68 beats per minute
same,Effect of isoprenaline after substance injected,"[2]; 20 min, spread ±10",89 beats per minute
same,Effect of isoprenaline after substance injected,"[2]; 35 min, spread ±10",97 beats per minute
same,Sympathico-inhibiting activity,"[2]; isoprenaline tachycardia, conscious dog",can moderate tachycardia produced by isoprenaline stimulation
"CCCCN(CCCC)CCCOc1c(C)cc(C(=O)c2oc3ccccc3c(=O)c2C)cc1C [Compound No. 6, 2-[4-(3-N,N-dibutylaminopropoxy) 3,5-dimethylbenzoyl] 3-methyl chromone hydrochloride]",Lethal dose,"[3]; I.V., aqueous solution 0.4%",~30 mg/kg
same,Lethal dose,"[3]; P.O., aqueous solution 1% and 4%",~1200 mg/kg
"CCCCN(CCCC)CCOc1c(C)cc(C(=O)c2cc(=O)c3ccccc3o2)cc1C [Compound No. 7, 2-[4-(2-N,N-dibutylaminoethoxy) 3,5-dimethylbenzoyl] chromone hydrochloride]","Average time for arrhythmia to appear, PES (polymorphic extrasystoles)",[1]; 4 mg/kg I.V.,36 ± 4 s
same,"Average time for arrhythmia to appear, VT (ventricular tachycardia)",[1]; 4 mg/kg I.V.,55 ± 8 s
same,"Average time for arrhythmia to appear, MTV (multifocal ventricular tachycardia)",[1]; 4 mg/kg I.V.,77 ± 9 s
same,"Average time for arrhythmia to appear, VTB (ventricular tachycardia bursts)",[1]; 4 mg/kg I.V.,145 ± 10 s
same,Delay of rhythm disorders induced by aconitine,[1],"delay rhythm disorders induced by aconitine to a greater extent than the conventional reference compound, amiodarone"
